Results as given in patent US20130034536A1, “Bile Acid Recycling Inhibitors for Treatment of Pancreatitis” (Lumena Pharmaceuticals, Inc., priority 2011, published 2013).

Test system: plasma active GLP-1 levels
Test: In vivo effects of ASBT inhibitor SC-435 on plasma active GLP-1 levels in rats (ELISA)
Design: species or system Sprague Dawley rats
Method: Male Sprague Dawley rats (HSD) 12 weeks old were fasted overnight for 16 hours.
SC-435 (racemate form synthesized at Nanosyn Inc. Menlo Park, Calif.) in 1 ml of saline administrated orally via gavage tube (n=5 per group).
Blood samples (200 μl) taken from the caudal vein with capillary tube at […] after compound administration for testing of plasma active GLP-1 levels (ELISA, Millipore Inc.)
Blood was collected in ice-cooled EDTA vial. Immediately (<30 seconds) after collection DPP-IV inhibitor added (10mkl per 1 ml blood). Samples were centrifuged immediately at 1000×g for 10 minutes in refrigerated centrifuge. Plasma was stored at −70° C. until evaluation.

For “1-[4-[4-[(4R,5R)-3,3-dibutyl-7-(dimethylamino)-2,3,4,5-tetrahydro-4-hydroxy-1,1-dioxido-benzothiepin-5-yl]phenoxy]butyl]-4-aza-1-azoniabicyclo[2.2.2]octane methanesulfonate salt [SC-435]”, the “time of peak GLP-1 after administration” value (after oral SC-435 administration) was 3 to 5 h, the “increase of 5-hour integrated GLP-1 concentrations vs. vehicle” value (oral gavage, doses 3, 30 or 100 mg/kg, overnight-fasted male rats, dose-dependent) was 2.5 fold and the “Peak GLP-1” value (plasma active GLP-1 after oral SC-435) was 30 to 36 pM.
